# Reference: article PMC11766867, “Novel 2-Thiazolylhydrazone with Druggable Properties for Antifungal Application” (Journal of Fungi, 2025)
# Read-outs that look alike come from different tables or passages of the source.
# Experiments:
# chorioallantoic membrane = test: HET-CAM assay (Hen's Egg Test on the Chorioallantoic Membrane), German protocol; assay type: in vivo, Gallus gallus domesticus; details: RW3 at 100 µM; for Irritation Score: 300 µL on chorioallantoic membrane, 300 s, mean of six eggs; for Classification (irritation potential): HET-CAM, German protocol
# Experimental: Gallus gallus domesticus eggs (n = 3) at the eighth day of embryonic development were incubated at 37 ± 2 °C and 50% humidity until the test. On the tenth day, the solutions of RW3 (100 µM), 1% DMSO in saline (diluent), 0.1 mol/L NaOH (positive control), and saline solution (negative control) were placed on the chorioallantoic membrane. Following the application of 300 µL of each solution, according to the German protocol, the changes in the membrane were recorded for 300 s, indicating the time of onset of each observed phenomenon (hemorrhage, lysis, and coagulation) and using the following formula to calculate the Irritation Score (IS) (Equation (1)). Each experiment was repeated two times.IS = (301 − sH)/300 × 5 + (301 − sL)/300 × […] + (301 − sC)/300 × 9,(1) where H = hemorrhage, L—lysis, C = coagulation, and s = start second.
# Additionally, to assess the possibility of irritation caused by RW3, the Hen’s Egg Test on the Chorioallantoic Membrane (HET-CAM) was performed. The HET-CAM assay is an in vivo semiquantitative test to evaluate the anti-inflammatory potential and anti-irritant properties, as well as the ocular toxicity of compounds/formulations. The benefits of this test include its simplicity, rapid execution, ease of use, and relatively low cost.
# [1] = tested on: Candidozyma (Candida) auris COLO 01; test: organism not typed; assay type: cell-based; details: 35 °C, 48 h, visual endpoint; for MIC: read-out: Minimal Inhibitory Concentration (MIC) C. auris
# Experimental: (§1) Broth microdilution testing was conducted following the guidelines in the CLSI document M27-A3 (2008) with modifications. Briefly, the following yeast were used in the present study: C. albicans SC5314, C. tropicalis ATCC 750, Candidozyma (Candida) auris COLO 01, C. parapsilosis ATCC 22019, Pichia kudravzevii (C. krusei) ATCC 20298, C. gattii ATCC 24065, C. neoformans ATCC 24067, and S. brasiliensis (189). All fungus strains were stored at a temperature of −80 °C. Before conducting the experiments, the strains were cultivated on Sabouraud dextrose agar (HiMedia, Mumbai, India) at 35 °C to ensure their purity and viability. The yeast phase of S. brasiliensis was grown on brain–heart infusion agar (BHI; Difco, Detroit, MI, USA) with two successive passages of 7 days at 35 °C and CO2 5% [11]. The compounds were tested at concentrations of 0.125–250 µg/mL. For comparative antifungal controls, fluconazole (Sigma-Aldrich, St. Louis, MO, USA), itraconazole (Sigma-Aldrich, St. Louis, MO, USA), and caspofungine (Sigma-Aldrich, St. Louis, MO, USA) were included. The plates were incubated at 35 °C for 48 h for yeast and for 7 days for S. brasiliensis at 35 °C and CO2 5%. The tests were performed in triplicate. The endpoints were determined visually by comparison with the endpoints of the drug-free growth-control well. The value of the minimum inhibitory concentration (MIC) was defined as the lowest extract concentration at which the well was optically clear and was expressed in µg/mL.
# C. albicans SC5314 = test: Broth microdilution MIC (CLSI M27-A3 with modifications); assay type: cell-based; details: Candida albicans, 35 °C, 48 h, visual endpoint, read-out: Minimal Inhibitory Concentration (MIC) C. albicans
# Experimental: as §1
# C. gattii ATCC 24065 = test: as above; assay type: cell-based; details: Cryptococcus gattii, ATCC24065; 35 °C, 48 h, visual endpoint; read-out: Minimal Inhibitory Concentration (MIC) C. gattii
# Experimental: as §1
# C. neoformans ATCC 24067 = test: as above; assay type: cell-based; details: Cryptococcus neoformans, ATCC24067; 35 °C, 48 h, visual endpoint; read-out: Minimal Inhibitory Concentration (MIC) C. neoformans
# Experimental: as §1
# [2] = tested on: C. parapsilosis ATCC 22019; test: as above; assay type: cell-based; details: Lodderomyces parapsilosis, ATCC22019; 35 °C, 48 h, visual endpoint; read-out: Minimal Inhibitory Concentration (MIC) C. parapsilosis
# Experimental: as §1
# C. tropicalis ATCC 750 = test: as above; assay type: cell-based; details: Candida tropicalis, ATCC750; 35 °C, 48 h, visual endpoint; read-out: Minimal Inhibitory Concentration (MIC) C. tropicalis
# Experimental: as §1
# [3] = tested on: Pichia kudravzevii (C. krusei) ATCC 20298; test: as above; assay type: cell-based; details: ATCC20298, 35 °C, 48 h, visual endpoint, read-out: Minimal Inhibitory Concentration (MIC) P. kudravzevii
# Experimental: as §1
# S. brasiliensis (189) = test: Broth microdilution MIC (CLSI M27-A3 with modifications), yeast phase; assay type: cell-based; details: Sporothrix brasiliensis, 168 h, 7 days at 35 °C and CO2 5%, read-out: Minimal Inhibitory Concentration (MIC) S. brasiliensis
# Experimental: as §1, with “The value of the minimum inhibitory concentration (MIC) was defined as the lowest extract concentration at which the well was optically clear and was expressed in µg/mL.” left out
# [4] = Saturation shake-flask solubility method; assay type: physicochemical; details: for solubility at 24 h: aqueous USP buffer, thermodynamic from solid, n = 3, read-out: Average Solubility mg/mL (±SD)
# Experimental: The equilibrium solubility of RW3 samples was assessed using the shake-flask method. The samples were dispersed in buffers described in the United States Pharmacopeia at pH values of 2.0, 4.5, and 6.8. For each reported solubility result, three independent shake-flask experiments were carried out in parallel. For each experiment, the solid sample was added carefully using a spatula to 2 mL of the aqueous buffer in a glass vial, while stirring, until a heterogeneous system (solid sample and liquid) was obtained. The solution containing solid excess of the sample was then capped, and stirred at 37 °C, 100 rpm, for 24 h in orbital shaker (Tecnal, Campinas, Brazil). An aliquot of 1 mL of the suspension was centrifuged, and the supernatant was then collected and filtered through a 0.2 µm PVDF filter. The resulting solution was then diluted 200× in the mobile phase, and the concentration of the sample in each aliquot was measured by the HPLC method. The RW3 concentrations were determined by injections of 10 µL of the samples via HPLC, using a Waters Alliance system (New Castle, DE, USA). Chromatographic separations were obtained using a PhenoSphere-NEXT® 5 µm C18 column (150 mm; 4,6 mm; Phenomenex®, Torrance, CA, USA) at 40° C. The mobile phase (1 mL/min) was composed of phosphate buffer 20 mM pH 4.0 and acetonitrile (50:50 v/v). The wavelength was set at 308 nm. The HPLC method employed was evaluated for linearity, precision, accuracy, and selectivity.
# The determination of the solubility under physiological conditions, particularly considering the different pH levels throughout the gastrointestinal tract, is one of the most important biopharmaceutical parameters that must be generated during the early stages of developing a new drug for oral administration. In this study, the solubility determination of RW3 was carried out using the miniaturized shake flask test, as only a small amount of the compound under investigation was available. In the literature, there are publications that have successfully employed the miniaturized test.
# [5] = In vitro Caco-2 cytotoxicity (MTT, ISO 10993-5); assay type: cell-based, human; details: human, Caco-2 cells, 4 h, MTT, read-out: cell viability
# Experimental: (§2) In vitro cytotoxicity assays were carried out following the protocol outlined in the ISO 10993-5 guideline (ISO, 2022). The human colon carcinoma cell line, Caco-2 cells (from ATCC), were cultured in 96-well plates for 24 h at a seeding density of 2 × 10^4 cells/well. The RW3 compound was dissolved in DMEM without phenol to prepare samples of 10, 25, and 50 µg/mL concentrations. Six replicates of each concentration for RW3 were assessed. This range of concentrations was chosen for reasons associated with the subsequent permeability tests. The experiments began by replacing the culture medium in each well with 100 µL of sample or control solutions, followed by a 4 h incubation at 37 °C in a CO2 incubator. Then, the solutions in each well were aspirated, and the cells were further incubated for 2 h with 30 µL of MTT solution (5 mg/mL, Sigma–Aldrich Corp., St. Louis, MO, USA, in DMEM and PBS buffer, 9:1 v/v). Next, formazan crystals were solubilized with 70 µL of isopropyl alcohol acidified with hydrochloric acid and quantified spectrophotometrically at 570 and 690 nm (Spectra Fluor plate reader, Tecan, Grödig, Austria). Cell viability was calculated based on the measured absorbance relative to the absorbance of the cells exposed to the negative controls (DMEM), which represented 100% cell viability, and for the positive control, we employed DMSO 50% in DMEM, which represented 0% cell viability.
# Caco-2 cells [6] = test: In vitro Caco-2 cytotoxicity (MTT, ISO 10993-5); assay type: cell-based, human; details: 10, 25 and 50 µg/mL; non-cytotoxic if viability exceeds 70% (ISO 10993-5)
# Experimental: as §2
# [7] = In vitro Caco-2 permeability assay; assay type: in vitro ADME, human; details: human, Caco-2
# Experimental: (§3) The Caco-2 cells (from ATCC) were cultured in 12-well Transwell® (Corning Incorporated, New York, NY, USA) insert filters for 21 days at a seeding density of 5 × 10^4 cells/cm^2 to achieve confluence and differentiation. The integrity of the monolayer was examined by measuring the transepithelial electrical resistance (TEER) with an epithelial voltammeter Millicell-ERS (Merck SA—German, Darmstadt, Germany). Only cell monolayers with a TEER above […] were used for the transport assays.
# (§4) Transport experiments were conducted by adding 10 µg/mL RW3 in HBSS buffer at pH 6.8 to the apical compartments of the Transwell® plates (Corning, Corning, NY, USA), while the basolateral buffer was maintained at pH 7.4. The plates were agitated in an orbital shaker at 37 °C (100 rpm). Samples (100 µL) were collected from both the basolateral and apical sides at 30, 60, 90, 120, and 180 min. The apparent permeability coefficients (Papp, cm/s) were calculated using the Equation (2):Papp = […](2) where VR is the volume of the receiver compartment (basolateral or apical), DQ/Dt is the linear appearance rate of the compound on the receiver chamber (in ng/cm^3/s), A is the membrane surface area (cm^2), and C0 is the initial concentration in the donor compartment (ng/cm^3). This calculation requires that the sink conditions are fulfilled; therefore, only receiver concentrations below 10% of the donor concentration were employed in the calculations.
# Caco-2 cells [8] = test: In vitro Caco-2 permeability assay; assay type: in vitro ADME, human; details: high permeability: Papp > 10 × 10^−6 cm/s
# Experimental: as §3, §4
SMILES,Irritation Score (chorioallantoic membrane),Classification (irritation potential) (chorioallantoic membrane),MIC (C. albicans SC5314) [µg/mL],MIC (C. gattii ATCC 24065) [µg/mL],MIC (C. neoformans ATCC 24067) [µg/mL],MIC [2] [µg/mL],MIC (C. tropicalis ATCC 750) [µg/mL],MIC [3] [µg/mL],MIC [1] [µg/mL],MIC (S. brasiliensis (189)) [µg/mL],further results
"[Na+].[OH-] [0.1 M NaOH, NaOH, reference compound]",12.00,Severe irritant,–,–,–,–,–,–,–,–,–
"CC[C@H](C)C[C@H](C)CCCCCCCCC(=O)N[C@H]1C[C@@H](O)[C@@H](NCCN)NC(=O)[C@@H]2[C@@H](O)CCN2C(=O)[C@H]([C@H](O)CCN)NC(=O)[C@H]([C@H](O)[C@@H](O)c2ccc(O)cc2)NC(=O)[C@@H]2C[C@@H](O)CN2C(=O)[C@H]([C@@H](C)O)NC1=O [Caspofungin, caspofungine]",–,–,–,–,–,–,–,–,–,–,Minimal Inhibitory Concentration (MIC) C. auris [1]: 0.05 µg/mL
"OC(Cn1cncn1)(Cn1cncn1)c1ccc(F)cc1F [Fluconazole, fluconazole, reference compound]",–,–,0.5,2,2,1,0.25,32,64,–,–
"CCC(C)n1ncn(-c2ccc(N3CCN(c4ccc(OCC5COC(Cn6cncn6)(c6ccc(Cl)cc6Cl)O5)cc4)CC3)cc2)c1=O (stereo not drawn) [Itraconazole, itraconazole, reference compound]",–,–,–,–,–,–,–,–,–,0.5,–
"CCOC(=O)Cc1csc(N/N=C(\C)C(=O)O)n1 [RW3, (E)-2-(2-(4-(2-Ethoxy-2-oxoethyl)thiazol-2-yl)hydrazineylidene)-Propanoic Acid]",0.76,Non-irritant,31.3,7.8,3.9,125,125,15.6,15.6,15.6,"solubility at 24 h ([4]; aqueous buffer, buffer pH 4.5, 37 °C): 1.01 ± 0.01 mg/mL; solubility at 24 h ([4]; aqueous buffer, buffer pH 6.8, 37 °C): 2.76 ± 0.09 mg/mL; solubility at 24 h ([4]; simulated gastric fluid, buffer pH 2.0, 37 °C): 0.67 ± 0.001 mg/mL; maximum daily dose borderline for high solubility classification (BCS, dose/S0 ratio less than 250) ([4]; extrapolated from lowest solubility (pH 2.0)): 168 mg; viability at 4 h, 10 µg/mL ([5]; Caco-2, 10 µg/mL): 100%; viability at 4 h, 25 µg/mL ([5]; Caco-2, 25 µg/mL): 88%; viability at 4 h, 50 µg/mL ([5]; Caco-2, 50 µg/mL): 86%; cytotoxic effects on the Caco-2 cell line (Caco-2 cells [6]): no cytotoxic effects; Papp A→B at 180 min, 10 µg/mL ([7]; apical−basolateral, 10 µg/mL, apical pH 6.8, basolateral pH 7.4, n = 3): 23.1 ± 9.69 ×10⁻⁶ cm/s; Papp B→A at 180 min, 10 µg/mL ([7]; basolateral−apical, 10 µg/mL, n = 3): 17.7 ± 7.19 ×10⁻⁶ cm/s; efflux ratio at 180 min, 10 µg/mL ([7]; read-out: Ratio Efflux Papp B-A/Papp A-B): 0.76; permeability characterization (BCS) (Caco-2 cells [8]): high permeability compound"
